Data reported in patent US10703757B2, “Compounds and methods for CDK8 modulation and indications therefor” (Plexxikon Inc., priority 2016, dated 2020).

Columns and labels:
[1] = system: CDK8 (phosphorylation of STAT1 at serine 727 in A549 cells); test: Cell based Phospho-STAT1 assay (IFNγ-stimulated A549 cells, AlphaLISA); conditions: Homo sapiens, A549, A549 cells, phospho-STAT1 after IFNγ stimulation
Method in brief: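 A549 cells given serial compound dilutions for 1 h at 37 °C, then stimulated with IFNγ at 10 ng/mL final for 30 min. Lysate STAT1 Ser727 phosphorylation measured by AlphaLISA; % inhibition vs stimulated/unstimulated DMSO controls, IC50 by nonlinear regression.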

[2] = system: CDK8 (TCF/LEF luciferase reporter in HCT116 cells); test: Cell based TCF/LEF reporter assay (HCT116+TCF/LEF luciferase); conditions: Homo sapiens, HCT-116, 24 h
Method in brief: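 Luciferase readout was corrected for viability (CellTiter-Fluor) and scaled between DMSO high and 10 uM CCT251545 low controls, giving IC50 by nonlinear regression. Compounds, serially diluted, were incubated 24 h at 37 °C on HCT116 clones stably expressing a TCF/LEF-driven luciferase reporter.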

| IC50 [1] [µM] | IC50 [2] [µM] | Structure (SMILES) |
| --- | --- | --- |
| 0.0001 to 0.1 | 0.0001 to 0.1 | N#CC1CC=C(c2c(-c3ccc(-c4cnn(C(F)F)c4)cc3)cnc3[nH]ccc23)CC1 (centres unmarked) [Compound P-0270, 4-(5-(4-(1-(difluoromethyl)-1H-pyrazol-4-yl)phenyl)-1H-pyrrolo[2,3-b]pyridin-4-yl)cyclohex-3-ene-1-carbonitrile] |
| 0.1 to 1 | 0.1 to 1 | Cn1cc(-c2ccc(-c3cnc4[nH]ccc4c3N3CCC4(CCNC4=O)CC3)cc2)cn1 [Compound P-0271, 8-(5-(4-(1-methyl-1H-pyrazol-4-yl)phenyl)-1H-pyrrolo[2,3-b]pyridin-4-yl)-2,8-diazaspiro[4.5]decan-1-one] |
| 0.1 to 1 | 0.0001 to 0.1 | Cn1cc(-c2ccc(-c3cnc4[nH]ccc4c3N3CCC4(CC3)C(=O)Nc3ccccc34)cc2)cn1 [Compound P-0272, 1′-(5-(4-(1-methyl-1H-pyrazol-4-yl)phenyl)-1H-pyrrolo[2,3-b]pyridin-4-yl)spiro[indoline-3,4′-piperidin]-2-one] |
| 0.0001 to 0.1 | 0.0001 to 0.1 | Cn1cc(-c2ccc(-c3cnn4cccc(C#CC(C)(C)C#N)c34)cc2)cn1 [Compound P-0273, 2,2-dimethyl-4-(3-(4-(1-methyl-1H-pyrazol-4-yl)phenyl)pyrazolo[1,5-a]pyridin-4-yl)but-3-ynenitrile] |
| 0.0001 to 0.1 | 0.0001 to 0.1 | Cn1cc(-c2ccc(-c3cnn4ccnc(C#CC(C)(C)O)c34)cc2)cn1 [Compound P-0274, 2-methyl-4-(3-(4-(1-methyl-1H-pyrazol-4-yl)phenyl)pyrazolo[1,5-a]pyrazin-4-yl)but-3-yn-2-ol] |
| 0.1 to 1 | 0.1 to 1 | Cn1cc(C#Cc2cnc3cccc(N4CCC5(CC4)NCNC5=O)n23)cn1 [Compound P-0275, 8-(3-((1-methyl-1H-pyrazol-4-yl)ethynyl)imidazo[1,2-a]pyridin-5-yl)-1,3,8-triazaspiro[4.5]decan-4-one] |
| 1 to 10 | 1 to 10 | CC1=NC2(CCN(c3cccc4ncc(C#Cc5cnn(C)c5)n34)CC2)C(=O)N1 [Compound P-0276, 2-methyl-8-(3-((1-methyl-1H-pyrazol-4-yl)ethynyl)imidazo[1,2-a]pyridin-5-yl)-1,3,8-triazaspiro[4.5]dec-1-en-4-one] |
| 1 to 10 | 1 to 10 | Cn1cc(C#Cc2cnc3cccc(N4CCC5(CC4)CNC(=O)O5)n23)cn1 [Compound P-0277, 8-(3-((1-methyl-1H-pyrazol-4-yl)ethynyl)imidazo[1,2-a]pyridin-5-yl)-1-oxa-3,8-diazaspiro[4.5]decan-2-one] |
| 0.1 to 1 | 0.1 to 1 | Cn1cc(C#Cc2cnc3cccc(N4CCC5(CCNC5=O)CC4)n23)cn1 [Compound P-0278, 8-(3-((1-methyl-1H-pyrazol-4-yl)ethynyl)imidazo[1,2-a]pyridin-5-yl)-2,8-diazaspiro[4.5]decan-1-one] |
| 0.0001 to 0.1 | 0.0001 to 0.1 | Cn1cc(-c2ccc(-c3cnn4ccnc(C5=CCC(C(N)=O)CC5)c34)cc2)cn1 (centres unmarked) [Compound P-0280, 4-(3-(4-(1-methyl-1H-pyrazol-4-yl)phenyl)pyrazolo[1,5-a]pyrazin-4-yl)cyclohex-3-ene-1-carboxamide] |
| 0.1 to 1 | 0.1 to 1 | Cc1ccc2cc(-c3cnn4cccc(C#CC(C)(C)O)c34)ccc2n1 [Compound P-0281, 2-methyl-4-(3-(2-methylquinolin-6-yl)pyrazolo[1,5-a]pyridin-4-yl)but-3-yn-2-ol] |
| 0.1 to 1 | 0.1 to 1 | COc1ccc2cc(-c3cnn4cccc(C#CC(C)(C)O)c34)ccc2n1 [Compound P-0282, 4-(3-(2-methoxyquinolin-6-yl)pyrazolo[1,5-a]pyridin-4-yl)-2-methylbut-3-yn-2-ol] |
| 0.1 to 1 | 0.1 to 1 | CC(C)(O)C#Cc1cccn2ncc(-c3cnn(-c4ccc(F)cc4)c3)c12 [Compound P-0283, 4-(3-(1-(4-fluorophenyl)-1H-pyrazol-4-yl)pyrazolo[1,5-a]pyridin-4-yl)-2-methylbut-3-yn-2-ol] |
| 1 to 10 | 1 to 10 | FC(F)n1cc(-c2ccc(-c3cnc4cccc(OC5COC5)n34)cc2)cn1 [Compound P-0284, 3-(4-(1-(difluoromethyl)-1H-pyrazol-4-yl)phenyl)-5-(oxetan-3-yloxy)imidazo[1,2-a]pyridine] |
| 0.1 to 1 | 0.1 to 1 | Cn1cc(-c2ccc(-c3cnn4cccc(N5CCC(F)(C(N)=O)CC5)c34)cc2)cn1 [Compound P-0285, 4-fluoro-1-(3-(4-(1-methyl-1H-pyrazol-4-yl)phenyl)pyrazolo[1,5-a]pyridin-4-yl)piperidine-4-carboxamide] |
| 0.0001 to 0.1 | 0.1 to 1 | CC(C)(O)C#Cc1cccn2ncc(-c3ccc4nccn4c3)c12 [Compound P-0286, 4-(3-(imidazo[1,2-a]pyridin-6-yl)pyrazolo[1,5-a]pyridin-4-yl)-2-methylbut-3-yn-2-ol] |

| IC50 [1] [µM] | IC50 [2] [µM] | Structure (SMILES) |
| --- | --- | --- |
| 1 to 10 | 1 to 10 | CC(C)(O)C#Cc1cccn2ncc(-c3cnn(-c4cncc(C5CC5)c4)c3)c12 [Compound P-0289, 4-(3-(1-(5-cyclopropylpyridin-3-yl)-1H-pyrazol-4-yl)pyrazolo[1,5-a]pyridin-4-yl)-2-methylbut-3-yn-2-ol] |
| 0.0001 to 0.1 | 1 to 10 | Cn1cc(-c2ccc(-c3cnn4cccc(N5CCC(F)(C#N)CC5)c34)cc2)cn1 [Compound P-0293, 4-fluoro-1-(3-(4-(1-methyl-1H-pyrazol-4-yl)phenyl)pyrazolo[1,5-a]pyridin-4-yl)piperidine-4-carbonitrile] |
| 0.0001 to 0.1 | 0.0001 to 0.1 | Cn1cc(-c2ccc(-c3cnn4cccc(C#CC(C)(C)C(N)=O)c34)cc2)cn1 [Compound P-0295, 2,2-dimethyl-4-(3-(4-(1-methyl-1H-pyrazol-4-yl)phenyl)pyrazolo[1,5-a]pyridin-4-yl)but-3-ynamide] |
| 0.1 to 1 | 1 to 10 | CNC(=O)C(C)(C)C#Cc1cccn2ncc(-c3ccc(-c4cnn(C)c4)cc3)c12 [Compound P-0296, N,2,2-trimethyl-4-(3-(4-(1-methyl-1H-pyrazol-4-yl)phenyl)pyrazolo[1,5-a]pyridin-4-yl)but-3-ynamide] |
| 0.1 to 1 | 0.0001 to 0.1 | Cn1cc(-c2ccc(-c3cnn4cccc(C#CC(C)(C)C(=O)O)c34)cc2)cn1 [Compound P-0297, 2,2-dimethyl-4-(3-(4-(1-methyl-1H-pyrazol-4-yl)phenyl)pyrazolo[1,5-a]pyridin-4-yl)but-3-ynoic acid] |
| 1 to 10 | 1 to 10 | CC(=O)N1CCC(Oc2cccc3ncc(-c4ccc(-c5cnn(C(F)F)c5)cc4)n23)CC1 [Compound P-0304, 1-[4-[3-[4-[1-(difluoromethyl)pyrazol-4-yl]phenyl]imidazo[1,2-a]pyridin-5-yl]oxy-1-piperidyl]ethanone] |
| 0.1 to 1 | 0.1 to 1 | Cn1cc(-c2ccc(-c3cnn4cccc(C#CC(C)(C)NS(C)(=O)=O)c34)cc2)cn1 [Compound P-0308, N-(2-methyl-4-(3-(4-(1-methyl-1H-pyrazol-4-yl)phenyl)pyrazolo[1,5-a]pyridin-4-yl)but-3-yn-2-yl)methanesulfonamide] |
| 0.0001 to 0.1 | 0.1 to 1 | Cn1cc(-c2ccc(-c3cnn4cccc(C#CC(C)(C)N)c34)cc2)cn1 [Compound P-0309, 2-methyl-4-(3-(4-(1-methyl-1H-pyrazol-4-yl)phenyl)pyrazolo[1,5-a]pyridin-4-yl)but-3-yn-2-amine] |
| 0.0001 to 0.1 | 0.0001 to 0.1 | Cn1cc(-c2ccc(-c3cnn4cccc(C#CC5(O)CCC5)c34)cc2)cn1 [Compound P-0310, 1-((3-(4-(1-methyl-1H-pyrazol-4-yl)phenyl)pyrazolo[1,5-a]pyridin-4-yl)ethynyl)cyclobutan-1-ol] |
| 0.0001 to 0.1 | 0.1 to 1 | Cc1nn(C)cc1-c1ccc(-c2cnn3cccc(C#CC(C)(C)O)c23)cc1 [Compound P-0311, 4-(3-(4-(1,3-dimethyl-1H-pyrazol-4-yl)phenyl)pyrazolo[1,5-a]pyridin-4-yl)-2-methylbut-3-yn-2-ol] |
| 0.1 to 1 | 0.1 to 1 | COc1ncc(C#Cc2cnc3cccc(N4CCC(C#N)CC4)n23)cn1 [Compound P-0313, 1-(3-((2-methoxypyrimidin-5-yl)ethynyl)imidazo[1,2-a]pyridin-5-yl)piperidine-4-carbonitrile] |
| 0.0001 to 0.1 | 0.0001 to 0.1 | COc1ncc(C#Cc2cnc3cccc(C4=CCC(C#N)CC4)n23)cn1 (centres unmarked) [Compound P-0314, 4-(3-((2-methoxypyrimidin-5-yl)ethynyl)imidazo[1,2-a]pyridin-5-yl)cyclohex-3-ene-1-carbonitrile] |
| 0.1 to 1 | 0.1 to 1 | O=C(C1CCC(c2cccn3ncc(-c4ccc(-c5cnn(C(F)F)c5)cc4)c23)CC1)N1CCC1 (centres unmarked) [Compound P-0315, azetidin-1-yl(4-(3-(4-(1-(difluoromethyl)-1H-pyrazol-4-yl)phenyl)pyrazolo[1,5-a]pyridin-4-yl)cyclohexyl)methanone] |
| 0.0001 to 0.1 | 0.0001 to 0.1 | NC(=O)C1CCC(c2cccn3ncc(-c4ccc(-c5cnn(C(F)F)c5)cc4)c23)CC1 (centres unmarked) [Compound P-0316, 4-(3-(4-(1-(difluoromethyl)-1H-pyrazol-4-yl)phenyl)pyrazolo[1,5-a]pyridin-4-yl)cyclohexane-1-carboxamide] |
| 0.0001 to 0.1 | 0.1 to 1 | CNC(=O)C1CCC(c2cccn3ncc(-c4ccc(-c5cnn(C(F)F)c5)cc4)c23)CC1 (centres unmarked) [Compound P-0317, 4-(3-(4-(1-(difluoromethyl)-1H-pyrazol-4-yl)phenyl)pyrazolo[1,5-a]pyridin-4-yl)-N-methylcyclohexane-1-carboxamide] |
